Assay results from PubChem BioAssay AID256 (DTP/NCI, 2004).
“And” between values parts separate entries of the source, which are not always exact repeats. Identical values can stand only once. Toxic doses and inconclusive results are not listed.

Tested on: CD2F1 mice, L1210 leukemia ip, survival T/C
Assay: NCI In Vivo Anticancer Drug Screen. Data for tumor model L1210 Leukemia (intraperitoneal) in CD2F1 (CDF1) mice
Conditions: higher = longer survival
Protocol: The antitumor activity of compounds was measured in mice bearing transplantable tumors. Survival or tumor size were measured and the results are expressed as the measurement made in the treated group (T) divided by the measurement made in the vehicle treated control group (C). The tumor model used in this assay is L1210 Leukemia (intraperitoneal) in CD2F1 (CDF1) mice

[1] = endpoint: mean survival time, dose: 50.0 mg/kg/injection, schedule: Q01DX009 (ip), vehicle: saline
[2] = endpoint: mean survival time, dose: 100.0 mg/kg/injection, schedule: Q01DX009 (ip), vehicle: saline
[3] = endpoint: mean survival time, dose: 200.0 mg/kg/injection, schedule: Q01DX009 (ip), vehicle: saline
[4] = endpoint: mean survival time, dose: 25.0 mg/kg/injection, schedule: Q01DX009 (ip), vehicle: saline with Tween-80
[5] = endpoint: mean survival time, dose: 50.0 mg/kg/injection, schedule: Q01DX009 (ip), vehicle: saline with Tween-80
[6] = endpoint: mean survival time, dose: 100.0 mg/kg/injection, schedule: Q01DX001 (ip), vehicle: saline with Tween-80
[7] = endpoint: mean survival time, dose: 200.0 mg/kg/injection, schedule: Q01DX001 (ip), vehicle: saline with Tween-80
[8] = endpoint: mean survival time, dose: 100.0 mg/kg/injection, schedule: Q04DX003 (ip), vehicle: saline with Tween-80
[9] = endpoint: mean survival time, dose: 200.0 mg/kg/injection, schedule: Q04DX003 (ip), vehicle: saline with Tween-80
[10] = endpoint: mean survival time, dose: 400.0 mg/kg/injection, schedule: Q04DX003 (ip), vehicle: saline with Tween-80
[11] = endpoint: mean survival time, dose: 100.0 mg/kg/injection, schedule: Q01DX009 (ip), vehicle: saline with Tween-80
[12] = endpoint: mean survival time, dose: 200.0 mg/kg/injection, schedule: Q01DX009 (ip), vehicle: saline with Tween-80
[13] = endpoint: mean survival time, dose: 400.0 mg/kg/injection, schedule: Q01DX009 (ip), vehicle: saline with Tween-80

With `Cn1c(CC(O)c2nc3ccccc3n2C)nc2ccccc21` (stereo unspecified) the T/C (endpoint: mean survival time, dose: 50.0 mg/kg/injection, schedule: Q01DX009 (ip), vehicle: Klucel (hydroxypropylcellulose) (HPC)) was 97 % of control, the T/C (endpoint: mean survival time, dose: 100.0 mg/kg/injection, schedule: Q01DX009 (ip), vehicle: Klucel (hydroxypropylcellulose) (HPC)) was 101 % of control and the T/C (endpoint: mean survival time, dose: 200.0 mg/kg/injection, schedule: Q01DX009 (ip), vehicle: Klucel (hydroxypropylcellulose) (HPC)) was 120 % of control.
In the case of `CC(=O)C1C(=O)C(=O)OC1C` (stereo unspecified), the T/C [1] is reported as 102 % of control, the T/C [2] is reported as 98 % of control and the T/C [3] is reported as 101 % of control.
`COC(=O)c1ccc[n+](CCc2c[nH]c3ccccc23)c1` was tested, and the T/C (endpoint: mean survival time, dose: 12.5 mg/kg/injection, schedule: Q01DX009 (ip), vehicle: saline with Tween-80) was 92 % of control, the T/C [4] was 97 % of control and the T/C [5] was 96 % of control and 107 % of control. For the same compound, the T/C [6] was 101 % of control and the T/C [7] was 96 % of control.
In the case of `FC(F)(F)c1ccc(Cl)c(N=C=S)c1`, the T/C (endpoint: mean survival time, dose: 100.0 mg/kg/injection, schedule: Q04DX002 (ip), vehicle: saline with Tween-80) is reported as 104 % of control and the T/C (endpoint: mean survival time, dose: 200.0 mg/kg/injection, schedule: Q04DX002 (ip), vehicle: saline with Tween-80) is reported as 93 % of control.
In the case of `COC1OC2COc3ccccc3OC2C(NC#N)C1OC(C)=O` (stereo unspecified), the T/C [6] is reported as 101 % of control, the T/C [7] is reported as 100 % of control and the T/C (endpoint: mean survival time, dose: 400.0 mg/kg/injection, schedule: Q01DX001 (ip), vehicle: saline with Tween-80) is reported as 100 % of control.
In the case of `CC(C)C(=O)/C=C/c1ccccc1`, the T/C [8] is reported as 102 % of control, the T/C [9] is reported as 103 % of control and the T/C [10] is reported as 102 % of control.
For `CCC(CO)[N-]CC[N-]C(CC)CO.[Cl][Pt+2][Cl]` (stereo unspecified), the T/C (endpoint: median survival time, dose: 6.25 mg/kg/injection, schedule: Q04DX003 (ip), vehicle: saline) was 101 % of control, the T/C (endpoint: median survival time, dose: 12.5 mg/kg/injection, schedule: Q04DX003 (ip), vehicle: saline) was 107 % of control and the T/C (endpoint: median survival time, dose: 25.0 mg/kg/injection, schedule: Q04DX003 (ip), vehicle: saline) was 109 % of control. The T/C (endpoint: median survival time, dose: 50.0 mg/kg/injection, schedule: Q04DX003 (ip), vehicle: saline) was 121 % of control.
In the case of `Cc1cc2sccc2cn1`, the T/C [4] is reported as 100 % of control, the T/C [5] is reported as 98 % of control and the T/C [11] is reported as 98 % of control. The T/C [8] was 90 % of control.
For `CC(C)C(Br)C(=O)NCC(=O)O` (stereo unspecified), the T/C [11] was 103 % of control, the T/C [12] was 97 % of control and the T/C [13] was 98 % of control.
For `COc1nc(Cl)nc(Cl)c1Cl` (tested in a mixture with another compound), the T/C (endpoint: mean survival time, dose: 12.5 mg/kg/injection, schedule: Q01DX009 (ip), vehicle: other) was 93 % of control, the T/C (endpoint: mean survival time, dose: 25.0 mg/kg/injection, schedule: Q01DX009 (ip), vehicle: other) was 93 % of control and the T/C (endpoint: mean survival time, dose: 50.0 mg/kg/injection, schedule: Q01DX009 (ip), vehicle: other) was 104 % of control.
In the case of `CCC(/C=N/N=C(N)N)=N\N=C(N)N`, the T/C (endpoint: mean survival time, dose: 15.0 mg/kg/injection, schedule: Q01DX010 (ip), vehicle: saline) is reported as 95 % of control and the T/C (endpoint: mean survival time, dose: 60.0 mg/kg/injection, schedule: Q01DX010 (ip), vehicle: saline) is reported as 101 % of control.
With `Cc1cc(Cc2ccc(N=C=O)c(C)c2)ccc1N=C=O` the T/C [8] was 103 % of control, the T/C [12] was 89 % of control and the T/C [9] was 111 % of control. For the same compound, the T/C [13] was 89 % of control and the T/C [10] was 106 % of control.
With `COc1cc2cc(c1Cl)N1CC(O)C(C)(O)C(=O)NC(C)C(=O)OC(CC1=O)C1(C)OC1C(C)C1CC(O)(NC(=O)O1)C(OC)/C=C\C=C(\C)C2OC` (stereo unspecified) the T/C (endpoint: median survival time, dose: 2.0 micrograms/kg/injection, schedule: Q01DX009 (ip), vehicle: distilled water + alcohol) was 104 % of control, the T/C (endpoint: median survival time, dose: 4.0 micrograms/kg/injection, schedule: Q01DX009 (ip), vehicle: distilled water + alcohol) was 104 % of control and the T/C (endpoint: median survival time, dose: 8.0 micrograms/kg/injection, schedule: Q01DX009 (ip), vehicle: distilled water + alcohol) was 108 % of control. For the same compound, the T/C (endpoint: median survival time, dose: 32.0 micrograms/kg/injection, schedule: Q01DX009 (ip), vehicle: distilled water + alcohol) was 104 % of control.
For `CCS(=O)(=O)OC1CCCCCCC1NC(=O)c1ccccc1` (stereo unspecified), the T/C [5] was 100 % of control, the T/C [11] was 97 % of control and the T/C [8] was 104 % of control. The T/C [9] was 98 % of control.
With `Cc1ccc(C2(SCC(N)C(=O)O)c3ccccc3-c3ccccc32)cc1` (stereo unspecified) the T/C (endpoint: mean survival time, dose: 25.0 mg/kg/injection, schedule: Q01DX009 (ip), vehicle: saline) was 95 % of control, the T/C [1] was 95 % of control and the T/C [2] was 97 % of control. For the same compound, the T/C [3] was 107 % of control.
In the case of `CCSC(=S)S`, the T/C (endpoint: mean survival time, dose: 75.0 mg/kg/injection, schedule: Q04DX003 (ip), vehicle: saline) is reported as 104 % of control, the T/C (endpoint: mean survival time, dose: 150.0 mg/kg/injection, schedule: Q04DX003 (ip), vehicle: saline) is reported as 98 % of control and the T/C (endpoint: mean survival time, dose: 300.0 mg/kg/injection, schedule: Q04DX003 (ip), vehicle: saline) is reported as 104 % of control.
With `O=S(=O)(O)CCCl` the T/C [5] was 96 % of control, the T/C [11] was 96 % of control and the T/C [12] was 96 % of control.
In the case of `CC(=O)/C=C\C1OC(n2ccc(=O)[nH]c2=O)C2OC(C)(C)OC12` (stereo unspecified), the T/C (endpoint: mean survival time, dose: 12.5 mg/kg/injection, schedule: Q01DX005 (ip), vehicle: distilled water + Tween-80) is reported as 105 % of control, the T/C (endpoint: mean survival time, dose: 25.0 mg/kg/injection, schedule: Q01DX005 (ip), vehicle: distilled water + Tween-80) is reported as 103 % of control and the T/C (endpoint: mean survival time, dose: 50.0 mg/kg/injection, schedule: Q01DX005 (ip), vehicle: distilled water + Tween-80) is reported as 97 % of control. The T/C (endpoint: mean survival time, dose: 100.0 mg/kg/injection, schedule: Q01DX005 (ip), vehicle: distilled water + Tween-80) was 102 % of control and the T/C (endpoint: mean survival time, dose: 200.0 mg/kg/injection, schedule: Q01DX005 (ip), vehicle: distilled water + Tween-80) was 103 % of control.
For `N#CCc1ccc(N=Nc2c(N)nc(N)nc2N)cc1`, the T/C [8] was 92 % of control, the T/C [9] was 104 % of control and the T/C [10] was 101 % of control.
`CC[C@@]1(OC(=O)CCC(=O)O)C(=O)OCc2c1cc1n(c2=O)Cc2cc3ccccc3nc2-1` was tested, and the T/C (endpoint: median survival time, dose: 5.86 mg/kg/injection, schedule: Q04DX002 (ip), vehicle: water) was 118 % of control, the T/C (endpoint: median survival time, dose: 8.79 mg/kg/injection, schedule: Q04HX004 (iv), vehicle: water) was 154 % of control and the T/C (endpoint: median survival time, dose: 11.73 mg/kg/injection, schedule: Q04DX002 (ip), vehicle: water) was 120 % of control. For the same compound, the T/C (endpoint: median survival time, dose: 17.59 mg/kg/injection, schedule: Q04HX004 (iv), vehicle: water) was 167 % of control and 180 % of control, the T/C (endpoint: median survival time, dose: 35.18 mg/kg/injection, schedule: Q04HX004 (iv), vehicle: water) was 197 % of control and 228 % of control and the T/C (endpoint: median survival time, dose: 46.9 mg/kg/injection, schedule: Q04DX002 (ip), vehicle: water) was 192 % of control and 200 % of control. For the same compound, the T/C (endpoint: median survival time, dose: 93.8 mg/kg/injection, schedule: Q04DX002 (ip), vehicle: water) was 231 % of control.
For `COC(OC)c1[nH]c(=S)[nH]c(=O)c1Cc1cccc(Cl)c1`, the T/C (endpoint: mean survival time, dose: 100.0 mg/kg/injection, schedule: Q04DX003 (ip), vehicle: saline sonified) was 95 % of control, the T/C (endpoint: mean survival time, dose: 200.0 mg/kg/injection, schedule: Q04DX003 (ip), vehicle: saline sonified) was 101 % of control and the T/C (endpoint: mean survival time, dose: 400.0 mg/kg/injection, schedule: Q04DX003 (ip), vehicle: saline sonified) was 108 % of control.
